Measured values reported in patent US20240350643A1, “PROTEIN DEGRADATION AGENT” (SUZHOU KINTOR PHARMACEUTICALS, INC., priority 2021, published 2024).

Experiments:
c-Myc protein = molecular target: T1, c-Myc protein (Homo sapiens, UniProt P01106); assay: Ability of compounds to degrade c-Myc protein in HL60 cells (ELISA); assay type: cell-based; conditions: HL-60, 1 μM compound, 24 h, read-out: HL60 cells Protein degradation rate (1 μM)
T1 construct: endogenous in cells; host or cells: HL60 cells
T1 sequence (P01106 whole entry): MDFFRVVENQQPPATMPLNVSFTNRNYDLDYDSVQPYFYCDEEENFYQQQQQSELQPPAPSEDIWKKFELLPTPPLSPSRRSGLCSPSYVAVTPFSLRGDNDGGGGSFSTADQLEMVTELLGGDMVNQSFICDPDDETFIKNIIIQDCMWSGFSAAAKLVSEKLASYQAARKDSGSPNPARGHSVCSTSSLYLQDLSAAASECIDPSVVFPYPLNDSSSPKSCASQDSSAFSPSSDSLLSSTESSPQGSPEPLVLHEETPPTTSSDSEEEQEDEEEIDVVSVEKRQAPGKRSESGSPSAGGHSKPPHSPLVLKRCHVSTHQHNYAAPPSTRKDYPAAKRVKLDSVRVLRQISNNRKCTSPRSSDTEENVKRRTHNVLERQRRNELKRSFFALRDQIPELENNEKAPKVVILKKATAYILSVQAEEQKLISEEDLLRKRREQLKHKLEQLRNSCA
Protocol: I Activity test 1: Ability of compounds to degrade c-Myc protein in HL60 cells:
HL60 cells in the exponential growth phase were centrifuged, diluted with fresh culture mediums to 6×10^4 cells/100 μL and plated into a 96-well plate at 100 μL per well.
Preparation of test compounds: the compounds were weighed and diluted with DMSO to a 10 mM stock solution for later use. According to test requirements, drugs were diluted with cell culture mediums, with ten-fold dilutions starting from 10 μM, to achieve 3 concentration gradients: 10 μM, 1 μM and 100 NM; and finally, 1 μL of the drugs (DMSO content: 0.01%) were added to each well. For the blank control group, DMSO was also diluted with cell culture mediums, and finally, 1 μL of the control reagent (DMSO content: 0.01%) was added to each well.
3. Effect of drugs on c-Myc in cells as determined by ELISA
After 24 h of drug action, the culture mediums were removed, and the cells were washed once with ice-cold 1× PBS. PBS was removed, and 100 μL of ice-cold 1× Cell Lysis Buffer plus 1 mM phenylmethylsulfonyl fluoride (PMSF) was added to each well. The plate was incubated on ice for 20 min and centrifuged at 4000 RPM at 4° C. for 10 min for later use.
4. Reagent and antibody preparation in ELISA kit 1× wash buffer • 1). 16 mL of ELISA wash buffer concentrate (25×) was diluted with 384 mL of deionized water or distilled water, labeled as 1× Wash Buffer. • 2). The concentrate and 1× Wash Buffer were stored in the refrigerator. The diluted buffer was used within 14 days.
The cell extraction buffer contains 10 mM Tris (pH 7.4), 100 mM NaCl, 1 mM EDTA, 1 mM EGTA, 1 mM NaF, 20 mM Na4P2O7 2 mM Na3VO4. 1% Triton™ ×-100, 10% glycerol, 0.1% SDS and 0.5% deoxycholate. Immediately before use, PMSF (0.3 M stock solution in DMSO) was added to the buffer to a final concentration of 1 mM.
Standard curve configuration: The standard liquid was diluted using glass or plastic tubes. • 1). Huc-Myc (total) standard liquid (Invitrogen, KH02041) was reconstituted with a standard dilution to 1000 pg/mL. Refer to the standard vial label for instructions. The contents were gently swirled or mixed and then allowed to stand for 10 minutes to ensure complete reconstitution, labeled as 1,000 pg/mL human c-Myc. The standard liquid was used within 1 hour after reconstitution. • 2). 250 μL of standard dilution buffers were added to 7 test tubes respectively labeled 500, 250, 125, 62.5, 31.25, 15,63 and 0 pg/mL. • 3). 250 μL of the 1000 pg/ml standard stock solution was added to the first EP tube to a concentration of 500 pg/mL, vortexed and mixed evenly. 250 μL of the resulting mixture was further pipetted and added to the second EP tube to a concentration of 250 pg/mL. Serial dilutions were performed until the sixth EP tube with a concentration of 15.63 pg/mL. Dilution was not performed on the last EP tube. • 4). The remaining reconstituted standard liquid should be discarded, or aliquoted and frozen at −80° C. for further use. Standards can be frozen and thawed only once without losing immunoreactivity.
1× anti-rabbit IgG HRP solution: 1× anti-rabbit IgG HRP solution was prepared within 15 minutes of use. The anti-rabbit IgG HRP (100×) contained 50% viscous glycerol. To ensure accurate dilutions, the following operations were carried out: 1 For each 8-well test strip used in the test, 10 μl, of the anti-rabbit IgG -IRP (100×) solution was pipetted, wherein the pipette tip was wiped with clean absorbent paper to remove excess solutions, and then the solution was dispensed into a test tube containing 1 mL of HRP diluent and mixed thoroughly. 2. The unused anti-rabbit IgG HRP (100×) was placed in the refrigerator for storage.
50 μL of the standard liquid was added to the appropriate wells and not added to the blank control well. Except for the blank control well, 50 μL of Hu c-Myc (total) detection antibody solution was added to each well and mixed by tapping the side face of the plate. […]

HL60 cells = assay: Anti-proliferation ability of compounds on HL60 cells (CTG); assay type: cell-based, human; conditions: Homo sapiens, HL-60, 72 h, 3 days, CellTiter-Glo, read-out: HL60 cells Proliferation inhibitory activity
Protocol: II. Activity test 2: Anti-proliferation ability of compounds on HL60 cells: 1 Cell plating
HL60 cells in the logarithmic growth phase were counted and plated evenly in a 96-well transparent bottom white plate at 20000 cells per well and 100 μL per well.
A certain amount of the compounds was weighed and diluted with DMSO to a 10 mM stock solution. The culture mediums corresponding to the cells were taken, and the drugs were diluted to the concentration required by the test, shaken gently and mixed evenly. 50 μl of the gradient dilution of the diluted compound was added to each well of the plated cells, and 50 μL of 0.1% DMSO was added to the control group. The plate was shaken gently, mixed evenly and incubated in a cell culture incubator for 3 days.
• 3.1 The CellTiter-GLo™ (CTG) reagent was taken in advance from the −20° C. refrigerator and equilibrated to room temperature in the dark (white bottle+brown bottle, 1:1 mixing evenly into the brown bottle, for later use). • 3.2 The 96-well plate was taken out and inspected under a microscope for growth situation. • 3.3 The bottom of the 96-well plate was tagged with white paper, and then the plate was wrapped with tin foil paper, shaken at 37° C. at 300 r for 10 min and mixed evenly. • 3.4 50 ul of CTG detection reagent was added to each well, Luminescence signal was detected using a microplate reader, and the inhibition rate was calculated. IC50 values of the compounds were calculated by XLfit software to evaluate the proliferation inhibitory activity on HL60 cells.

inhibition at 1 µM (c-Myc protein) | IC50 (HL60 cells) | SMILES
60 to 90% | 16.3 ± 3.3 nM | O=C(Cc1cccc2ccccc12)NCCCCCCCCNc1ccc2c(c1)C(=O)N(C1CCC(=O)NC1=O)C2=O (stereo not shown) [A15]
60 to 90% | 21.2 ± 6.1 nM | O=C(Cn1c2ccccc2c2cccnc21)NCCCCCCCCNc1ccc2c(c1)C(=O)N(C1CCC(=O)NC1=O)C2=O (stereo not shown) [A16]
30 to 60% | 3590 ± 1180 nM | O=C(Cc1cccc2ccccc12)NCCCCCCCCOc1ccc2c(c1)C(=O)N(C1CCC(=O)NC1=O)C2=O (stereo not shown) [A17]
30 to 60% | 1220 ± 217 nM | O=C(Cn1c2ccccc2c2cccnc21)NCCCCCCCCOc1ccc2c(c1)C(=O)N(C1CCC(=O)NC1=O)C2=O (stereo not shown) [A18]
60 to 90% | 585 ± 79.8 nM | O=C(Cc1cccc2ccccc12)NCCCCCCCCCc1ccc2c(c1)C(=O)N(C1CCC(=O)NC1=O)C2=O (stereo not shown) [A19]
60 to 90% | 490 ± 64.9 nM | O=C(Cn1c2ccccc2c2cccnc21)NCCCCCCCCCc1ccc2c(c1)C(=O)N(C1CCC(=O)NC1=O)C2=O (stereo not shown) [A20]
10 to 30% | 178 ± 68.4 nM | O=C1CCC(N2C(=O)c3ccc(CCCCCCC(=O)N(Cc4ccccc4)Cc4ccccc4)cc3C2=O)C(=O)N1 (stereo not shown) [A21]
30 to 60% | 29.2 ± 14.4 nM | O=C(Cc1cccc2ccccc12)NC[C@H]1CC[C@H](CNC(=O)c2ccc3c(c2)C(=O)N(C2CCC(=O)NC2=O)C3=O)CC1 (stereo partly shown) [A22]
30 to 60% | 55.4 ± 6.7 nM | O=C(Cn1c2ccccc2c2ccccc21)NC[C@H]1CC[C@H](CNC(=O)c2ccc3c(c2)C(=O)N(C2CCC(=O)NC2=O)C3=O)CC1 (stereo partly shown) [A23]
30 to 60% | 103 ± 53.2 nM | O=C(Cn1c2ccccc2c2cccnc21)NC[C@H]1CC[C@H](CNC(=O)c2ccc3c(c2)C(=O)N(C2CCC(=O)NC2=O)C3=O)CC1 (stereo partly shown) [A24]
30 to 60% | 270 ± 126 nM | O=C(Cn1c2ccccc2c2ccncc21)NC[C@H]1CC[C@H](CNC(=O)c2ccc3c(c2)C(=O)N(C2CCC(=O)NC2=O)C3=O)CC1 (stereo partly shown) [A25]
30 to 60% | 2820 ± 1060 nM | CC(C)(C)OC(=O)NC[C@H]1CC[C@H](CNC(=O)c2ccc3c(c2)C(=O)N(C2CCC(=O)NC2=O)C3=O)CC1 (stereo partly shown) [A26]
10 to 30% | 6800 ± 1540 nM | O=C(Cc1cccc2ccccc12)NC[C@H]1CC[C@H](CNc2ccc3c(c2)C(=O)N(C2CCC(=O)NC2=O)C3=O)CC1 (stereo partly shown) [A27]
60 to 90% | 5060 ± 137 nM | CC(C)(C)OC(=O)NC[C@H]1CC[C@H](CNc2ccc3c(c2)C(=O)N(C2CCC(=O)NC2=O)C3=O)CC1 (stereo partly shown) [A28]
60 to 90% | 30.1 ± 21.1 nM | O=C(Cc1cccc2ccccc12)NCc1ccc(CNC(=O)c2ccc3c(c2)C(=O)N(C2CCC(=O)NC2=O)C3=O)cc1 (stereo not shown) [A29]
60 to 90% | 18 ± 11.5 nM | O=C(Cn1c2ccccc2c2cccnc21)NCc1ccc(CNC(=O)c2ccc3c(c2)C(=O)N(C2CCC(=O)NC2=O)C3=O)cc1 (stereo not shown) [A30]
60 to 90% | 1360 nM | CC(C)(C(=O)NCc1ccc(CNC(=O)c2ccc3c(c2)C(=O)N(C2CCC(=O)NC2=O)C3=O)cc1)c1cccc2ccccc12 (stereo not shown) [A31]
60 to 90% | 433 ± 166 nM | CC(C)(C(=O)NCc1ccc(CNC(=O)c2ccc3c(c2)C(=O)N(C2CCC(=O)NC2=O)C3=O)cc1)n1c2ccccc2c2cccnc21 (stereo not shown) [A32]

inhibition at 1 µM (c-Myc protein) | IC50 (HL60 cells) | SMILES
60 to 90% | 9.1 ± 0.3 nM | O=C(Cc1nccc2ccccc12)NCc1ccc(CNC(=O)c2ccc3c(c2)C(=O)N(C2CCC(=O)NC2=O)C3=O)cc1 (stereo not shown) [A33]
60 to 90% | 18 ± 6 nM | O=C(Cc1cccc2cccnc12)NCc1ccc(CNC(=O)c2ccc3c(c2)C(=O)N(C2CCC(=O)NC2=O)C3=O)cc1 (stereo not shown) [A34]
60 to 90% | 10.9 ± 4.8 nM | O=C(Cc1c(F)ccc2ccccc12)NCc1ccc(CNC(=O)c2ccc3c(c2)C(=O)N(C2CCC(=O)NC2=O)C3=O)cc1 (stereo not shown) [A35]
30 to 60% | 13.4 ± 3.3 nM | O=C(Cc1cccc2ccc(F)cc12)NCc1ccc(CNC(=O)c2ccc3c(c2)C(=O)N(C2CCC(=O)NC2=O)C3=O)cc1 (stereo not shown) [A36]
30 to 60% | 314 nM | O=C(Cc1cccc2ccccc12)NCc1cccc(CNC(=O)c2ccc3c(c2)C(=O)N(C2CCC(=O)NC2=O)C3=O)c1 (stereo not shown) [A37]
30 to 60% | 66.2 ± 14.6 nM | O=C(Cn1c2ccccc2c2cccnc21)NCc1cccc(CNC(=O)c2ccc3c(c2)C(=O)N(C2CCC(=O)NC2=O)C3=O)c1 (stereo not shown) [A38]
60 to 90% | 979 ± 80.2 nM | O=C(Cc1cccc2ccccc12)NCCc1ccc(NC(=O)c2ccc3c(c2)C(=O)N(C2CCC(=O)NC2=O)C3=O)cc1 (stereo not shown) [A39]
60 to 90% | 306 ± 73.8 nM | O=C(Cc1cccc2ccccc12)NCCc1ccc(CNC(=O)c2ccc3c(c2)C(=O)N(C2CCC(=O)NC2=O)C3=O)cc1 (stereo not shown) [A40]
60 to 90% | 155 ± 8.9 nM | O=C(Cn1c2ccccc2c2cccnc21)NCCc1ccc(CNC(=O)c2ccc3c(c2)C(=O)N(C2CCC(=O)NC2=O)C3=O)cc1 (stereo not shown) [A41]
60 to 90% | 3640 ± 895 nM | O=C(Cc1cccc2ccccc12)NCc1ccc(CCNC(=O)c2ccc3c(c2)C(=O)N(C2CCC(=O)NC2=O)C3=O)cc1 (stereo not shown) [A42]
60 to 90% | 282 ± 27.5 nM | O=C(Cn1c2ccccc2c2cccnc21)NCc1ccc(CCNC(=O)c2ccc3c(c2)C(=O)N(C2CCC(=O)NC2=O)C3=O)cc1 (stereo not shown) [A43]
30 to 60% | 5400 ± 683 nM | O=C1CCC(N2C(=O)c3ccc(C(=O)NCc4ccc(NC(=O)Cc5cccc6ccccc56)cc4)cc3C2=O)C(=O)N1 (stereo not shown) [A44]
60 to 90% | 61.6 ± 21 nM | O=C1CCC(N2C(=O)c3ccc(C(=O)NCc4ccc(CNC(=O)Nc5cccc6ccccc56)cc4)cc3C2=O)C(=O)N1 (stereo not shown) [A45]
60 to 90% | 50.2 ± 14 nM | O=C1CCC(N2C(=O)c3ccc(C(=O)NC[C@H]4CC[C@H](CNC(=O)Nc5cccc6ccccc56)CC4)cc3C2=O)C(=O)N1 (stereo partly shown) [A46]
60 to 90% | 1040 ± 171 nM | O=C1CCC(N2C(=O)c3ccc(C(=O)NC[C@H]4CC[C@H](CNC(=O)Nc5cccc6cccnc56)CC4)cc3C2=O)C(=O)N1 (stereo partly shown) [A47]
60 to 90% | 3579 ± 29 nM | O=C1CCC(N2C(=O)c3ccc(C(=O)NC[C@H]4CC[C@H](CNC(=O)Nc5cccc6ccncc56)CC4)cc3C2=O)C(=O)N1 (stereo partly shown) [A48]
60 to 90% | 6820 ± 1630 nM | O=C1CCC(N2C(=O)c3ccc(C(=O)NC[C@H]4CC[C@H](CNC(=O)Nc5cccc6cnccc56)CC4)cc3C2=O)C(=O)N1 (stereo partly shown) [A49]
